# Assay results as given in article PMC4364940, “Human β-Defensin 4 with Non-Native Disulfide Bridges Exhibit Antimicrobial Activity” (PLoS ONE, 2015).
# Where two headings read alike, the source gives them in different places. Positions of bridges follow the written chain, without caps; N, C: chain ends. Residues, ends and D or L forms follow the SMILES beside them. *: point of attachment. Acm = CC(=O)NC*; tBu = CC(C)(C)*
# What was measured:
# [1] = test system: Staphylococcus aureus (NCTC 8530); details: pH 7.4
# [2] = test system: Escherichia coli (MG1655); details: pH 7.4
# P. aeruginosa [3] = experiment: Salt sensitivity assay (150 mM NaCl); type: cell-based, Pseudomonas aeruginosa; details: peptides at lethal concentrations
# P. aeruginosa [4] = type: cell-based, Pseudomonas aeruginosa; details: peptide treated cells plated at fixed time intervals during 2 hrs of incubation
# Protocol: The antibacterial activity of peptides was examined against Gram-negative bacteria Escherichia coli (MG1655), Pseudomonas aeruginosa (NCTC 6750) and Gram-positive bacteria Staphylococcus aureus (NCTC 8530) using colony counting assay. Bacteria were sub-cultured on nutrient broth (Difco, Detroit, MI, US) at 37°C to mid-logarithmic phase from an overnight grown culture. The cells were harvested and washed with 10 mM sodium phosphate buffer (pH 7.4). 100 μl of suspension containing 10^6 cfu/ml was incubated with varying concentration of peptides for 2 hrs at 37°C. The cells were spread on nutrient agar plates and incubated for 14–18 hrs at 37°C. The numbers of colony forming units (cfu) was counted and minimum concentration at which more than 99% of killing observed was taken as lethal concentration (LC). Fungicidal activity against Candida albicans (ATCC 18804) was also determined as described for the bacteria. […] The effect of loss of proton motif force (pmf) in bacteria and C. albicans on the antimicrobial activity of the peptides was determined by adding the metabolic inhibitor like carbonyl cyanide m-chlorophenylhydrazone (CCCP) (50 μM) into the cell suspension 20 mins prior to the peptides treatment. The rate of killing with respect to time was determined by plating the peptide treated cells at fixed time intervals during 2 hrs of incubation. […]
# [5] = test system: Candida albicans (ATCC 18804); details: ATCC 18804, 2 h
# E. coli [6] = type: cell-based, Escherichia coli
# E. coli [7] = type: cell-based, Escherichia coli; remark: listed apart in the source
# [8] = test system: Pseudomonas aeruginosa (NCTC 6750); details: NCTC 6750, 2 h, pH 7.4
# S. aureus = type: cell-based, Staphylococcus aureus
structure (smiles),measurement,setting,value
CC[C@H](C)[C@@H]1NC(=O)[C@H](CCCNC(=N)N)NC(=O)[C@H](Cc2ccc(O)cc2)NC(=O)[C@H](CCC(=O)O)NC(=O)[C@H](CCC(N)=O)NC(=O)[C@H](CO)NC(=O)[C@H](CCCNC(=N)N)NC(=O)[C@H](CCCCN)NC(=O)[C@H](CCCCN)NC(=O)[C@H](CCCNC(=N)N)NC(=O)[C@@H](NC(=O)[C@H](CCCNC(=N)N)NC(=O)[C@H](C)NC(=O)[C@@H](NC(=O)CNC(=O)[C@H](Cc2ccc(O)cc2)NC(=O)CNC(=O)[C@H](CO)NC(=O)[C@H](CO)NC(=O)[C@@H](NC(=O)[C@H](CCCNC(=N)N)NC(=O)[C@H](CC(=O)O)NC(=O)[C@H](CC(C)C)NC(=O)[C@H](CCC(=O)O)NC(=O)[C@H](Cc2ccccc2)NC(=O)[C@@H](N)CCC(=O)O)[C@@H](C)CC)[C@@H](C)O)CSSC[C@@H](C(=O)N[C@@H](CC(C)C)C(=O)N[C@@H](CCCNC(=N)N)C(=O)N[C@@H](CCCCN)C(=O)O)NC(=O)[C@H](CO)NC(=O)[C@H](C)NC(=O)[C@H](Cc2ccc(O)cc2)NC(=O)[C@H]([C@@H](C)O)NC(=O)[C@H](CC(N)=O)NC(=O)[C@@H]2CCCN2C(=O)[C@H](CO)NC(=O)[C@H](CCCNC(=N)N)NC(=O)CNC1=O [H4-1d[S]] (H-EFELDRISSGYGTARCRKKRSQEYRIGRSPNTYASCLRK-OH; disulfide 16-36),lethal concentration (LC) against S. aureus,[1],5 µM
same,lethal concentration (LC) against E. coli,[2],3 µM
CC[C@H](C)[C@@H]1NC(=O)[C@H](CCCNC(=N)N)NC(=O)[C@H](Cc2ccc(O)cc2)NC(=O)[C@H](CCC(=O)O)NC(=O)[C@H](CCC(N)=O)NC(=O)[C@H](CO)NC(=O)[C@H](CCCNC(=N)N)NC(=O)[C@H](CCCCN)NC(=O)[C@H](CCCCN)NC(=O)[C@H](CCCNC(=N)N)NC(=O)[C@@H](NC(=O)[C@H](CCCNC(=N)N)NC(=O)[C@H](C)NC(=O)[C@@H](NC(=O)CNC(=O)[C@H](Cc2ccc(O)cc2)NC(=O)CNC(=O)[C@H](CO)NC(=O)[C@H](CO)NC(=O)[C@@H](NC(=O)[C@H](CCCNC(=N)N)NC(=O)[C@H](CC(=O)O)NC(=O)[C@H](CC(C)C)NC(=O)[C@@H](N)CCC(=O)O)[C@@H](C)CC)[C@@H](C)O)CSSC[C@@H](C(=O)N[C@@H](CC(C)C)C(=O)N[C@@H](CCCNC(=N)N)C(=O)N[C@@H](CCCCN)C(=O)O)NC(=O)[C@H](CO)NC(=O)[C@H](C)NC(=O)[C@H](Cc2ccc(O)cc2)NC(=O)[C@H]([C@@H](C)O)NC(=O)[C@H](CC(N)=O)NC(=O)[C@@H]2CCCN2C(=O)[C@H](CO)NC(=O)[C@H](CCCNC(=N)N)NC(=O)CNC1=O [H4-1d[S]ΔEF] (H-ELDRISSGYGTARCRKKRSQEYRIGRSPNTYASCLRK-OH; disulfide 14-34; N-terminus and C-terminus assumed),lethal concentration (LC) against S. aureus,[1],5 µM
same,lethal concentration (LC) against E. coli,[2],3 µM
"CC[C@H](C)[C@@H]1NC(=O)[C@H](CCCNC(=N)N)NC(=O)[C@H](Cc2ccc(O)cc2)NC(=O)[C@H](CCC(=O)O)NC(=O)[C@H](CCC(N)=O)NC(=O)[C@H](CO)NC(=O)[C@H](CCCNC(=N)N)NC(=O)[C@@H]2CSSC[C@@H](C(=O)N[C@@H](CC(C)C)C(=O)N[C@@H](CCCNC(=N)N)C(=O)N[C@@H](CCCCN)C(=O)O)NC(=O)[C@@H]3CSSC[C@H](NC(=O)[C@@H](NC(=O)[C@H](CCCNC(=N)N)NC(=O)[C@H](CC(=O)O)NC(=O)[C@H](CC(C)C)NC(=O)[C@@H](N)CCC(=O)O)[C@@H](C)CC)C(=O)NCC(=O)N[C@@H](Cc4ccc(O)cc4)C(=O)NCC(=O)N[C@@H]([C@@H](C)O)C(=O)N[C@@H](C)C(=O)N[C@@H](CCCNC(=N)N)C(=O)N[C@@H](CSSC[C@H](NC(=O)[C@H](CCCNC(=N)N)NC(=O)CNC1=O)C(=O)N1CCC[C@H]1C(=O)N[C@@H](CC(N)=O)C(=O)N[C@@H]([C@@H](C)O)C(=O)N[C@@H](Cc1ccc(O)cc1)C(=O)N[C@@H](C)C(=O)N3)C(=O)N[C@@H](CCCNC(=N)N)C(=O)N[C@@H](CCCCN)C(=O)N[C@@H](CCCCN)C(=O)N2 [HBD4, Human β-defensin 4] (H-ELDRICGYGTARCRKKCRSQEYRIGRCPNTYACCLRK-OH; disulfide 6-33, 13-27, 17-34; N-terminus and C-terminus assumed)",activity against P. aeruginosa in the presence of 150 mM NaCl,P. aeruginosa [3],significant loss in activity
same,lethal concentration (LC) against S. aureus,"[1]; NCTC 8530, 2 h",15 (0.47) μM
same,rate of killing of P. aeruginosa,P. aeruginosa [4],more rapidly as compared to the analogs
same,minimum fungicidal concentration (MFC) against C. albicans,[5],7.5 (0.91) μM
same,activity against E. coli in the presence of 150 mM NaCl,E. coli [6],significant loss in activity
same,salt sensitivity against E. coli in the absence of pmf,E. coli [6],attenuation of activity by NaCl is not observed
same,time of incubation for killing of E. coli,E. coli [7],≤ 30 min
same,lethal concentration (LC) against E. coli,"[2]; MG1655, 2 h",5 (0.53) μM
same,lethal concentration (LC) against P. aeruginosa,[8],12 (1.35) μM
same,activity against S. aureus in the presence of 150 mM NaCl,S. aureus,significant loss in activity
CC[C@H](C)[C@@H]1NC(=O)[C@H](CCCNC(=N)N)NC(=O)[C@H](Cc2ccc(O)cc2)NC(=O)[C@H](CCC(=O)O)NC(=O)[C@H](CCC(N)=O)NC(=O)[C@H](CO)NC(=O)[C@H](CCCNC(=N)N)NC(=O)[C@H](CCCCN)NC(=O)[C@H](CCCCN)NC(=O)[C@H](CCCNC(=N)N)NC(=O)[C@@H](NC(=O)[C@H](CCCNC(=N)N)NC(=O)[C@H](C)NC(=O)[C@@H](NC(=O)CNC(=O)[C@H](Cc2ccc(O)cc2)NC(=O)CNC(=O)[C@H](CSC(C)(C)C)NC(=O)[C@H](CSCNC(C)=O)NC(=O)[C@@H](NC(=O)[C@H](CCCNC(=N)N)NC(=O)[C@H](CC(=O)O)NC(=O)[C@H](CC(C)C)NC(=O)[C@@H](N)CCC(=O)O)[C@@H](C)CC)[C@@H](C)O)CSSC[C@@H](C(=O)N[C@@H](CC(C)C)C(=O)N[C@@H](CCCNC(=N)N)C(=O)N[C@@H](CCCCN)C(=O)O)NC(=O)[C@H](CSCNC(C)=O)NC(=O)[C@H](C)NC(=O)[C@H](Cc2ccc(O)cc2)NC(=O)[C@H]([C@@H](C)O)NC(=O)[C@H](CC(N)=O)NC(=O)[C@@H]2CCCN2C(=O)[C@H](CSC(C)(C)C)NC(=O)[C@H](CCCNC(=N)N)NC(=O)CNC1=O [Peptide H4-1dΔEF] (H-ELDRIC(Acm)C(tBu)GYGTARCRKKRSQEYRIGRC(tBu)PNTYAC(Acm)CLRK-OH; disulfide 14-34; N-terminus and C-terminus assumed),lethal concentration (LC) against S. aureus,[1],3.5 µM
same,lethal concentration (LC) against E. coli,[2],2.5 µM
